Source: PubChem BioAssay (NCI)
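Tested at 5 concentrations; 48 h exposure; 96-well plates; endpoints linearly interpolated, else capped at highest concentration. The concentration for full growth arrest is given as TGI.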

Assays:
Test in all cases: NCI-60 cell line screen, 48 h
SN12C renal = system: SN12C renal
OVCAR-4 ovarian = system: OVCAR-4 ovarian
BT-549 breast = system: BT-549 breast
SK-OV-3 ovarian = system: SK-OV-3 ovarian
CCRF-CEM leukemia = system: CCRF-CEM leukemia
UACC-257 melanoma = system: UACC-257 melanoma
NCI/ADR-RES ovarian = system: NCI/ADR-RES ovarian
MDA-MB-435 = system: MDA-MB-435
UACC-62 melanoma = system: UACC-62 melanoma
SNB-19 CNS = system: SNB-19 CNS
OVCAR-8 ovarian = system: OVCAR-8 ovarian
MALME-3M melanoma = system: MALME-3M melanoma
KM12 colon = system: KM12 colon
NCI-H522 lung = system: NCI-H522 lung
PC-3 prostate = system: PC-3 prostate
HOP-62 NSCLC = system: HOP-62 NSCLC
HCT-116 colon = system: HCT-116 colon
RXF 393 renal = system: RXF 393 renal
MDA-N = system: MDA-N
786-0 renal = system: 786-0 renal
HCC-2998 colon = system: HCC-2998 colon
SK-MEL-28 melanoma = system: SK-MEL-28 melanoma
CAKI-1 renal = system: CAKI-1 renal
HL-60(TB) leukemia = system: HL-60(TB) leukemia
SK-MEL-2 melanoma = system: SK-MEL-2 melanoma
K-562 leukemia = system: K-562 leukemia
A549 NSCLC = system: A549 NSCLC
DU-145 prostate = system: DU-145 prostate
HCT-15 colon = system: HCT-15 colon
SK-MEL-5 melanoma = system: SK-MEL-5 melanoma
HOP-92 NSCLC = system: HOP-92 NSCLC
SW-620 colon = system: SW-620 colon
MDA-MB-231 breast = system: MDA-MB-231 breast
COLO 205 colon = system: COLO 205 colon
SR leukemia = system: SR leukemia
HS 578T breast = system: HS 578T breast
SNB-75 CNS = system: SNB-75 CNS
UO-31 renal = system: UO-31 renal
SF-539 CNS = system: SF-539 CNS
OVCAR-5 ovarian = system: OVCAR-5 ovarian
NCI-H460 lung = system: NCI-H460 lung
RPMI-8226 leukemia = system: RPMI-8226 leukemia
MOLT-4 leukemia = system: MOLT-4 leukemia
MCF7 breast = system: MCF7 breast
SF-295 CNS = system: SF-295 CNS
LOX IMVI melanoma = system: LOX IMVI melanoma
T-47D breast = system: T-47D breast
TK-10 renal = system: TK-10 renal
ACHN renal = system: ACHN renal
M14 melanoma = system: M14 melanoma
U251 CNS = system: U251 CNS
SF-268 CNS = system: SF-268 CNS
NCI-H23 lung = system: NCI-H23 lung
OVCAR-3 ovarian = system: OVCAR-3 ovarian
IGROV1 ovarian = system: IGROV1 ovarian
A498 renal = system: A498 renal
HT29 colon = system: HT29 colon
NCI-H226 lung = system: NCI-H226 lung
EKVX NSCLC = system: EKVX NSCLC

## CC(=O)C(C(=O)C(C)(C)C)C(=O)C(C)(C)C
SN12C renal
  TGI: > 100 µM
OVCAR-4 ovarian
  TGI: > 100 µM
BT-549 breast
  TGI: > 100 µM
SK-OV-3 ovarian
  TGI: > 100 µM
CCRF-CEM leukemia
  TGI: > 100 µM
UACC-257 melanoma
  TGI: > 100 µM
NCI/ADR-RES ovarian
  TGI: > 100 µM
MDA-MB-435
  TGI: > 100 µM
UACC-62 melanoma
  TGI: > 100 µM
SNB-19 CNS
  TGI: > 100 µM
OVCAR-8 ovarian
  TGI: > 100 µM
MALME-3M melanoma
  TGI: > 100 µM
KM12 colon
  TGI: > 100 µM
NCI-H522 lung
  TGI: > 100 µM
PC-3 prostate
  TGI: > 100 µM
HOP-62 NSCLC
  TGI: > 100 µM
HCT-116 colon
  TGI: > 100 µM
RXF 393 renal
  TGI: > 100 µM
MDA-N
  TGI: > 100 µM
786-0 renal
  TGI: > 100 µM
HCC-2998 colon
  TGI: > 100 µM
SK-MEL-28 melanoma
  TGI: > 100 µM
CAKI-1 renal
  TGI: > 100 µM
HL-60(TB) leukemia
  TGI: > 100 µM
SK-MEL-2 melanoma
  TGI: > 100 µM
K-562 leukemia
  TGI: > 100 µM
A549 NSCLC
  TGI: > 100 µM
DU-145 prostate
  TGI: > 100 µM
HCT-15 colon
  TGI: > 100 µM
SK-MEL-5 melanoma
  TGI: > 100 µM
HOP-92 NSCLC
  TGI: > 100 µM
SW-620 colon
  TGI: > 100 µM
MDA-MB-231 breast
  TGI: > 100 µM
COLO 205 colon
  TGI: > 100 µM
SR leukemia
  TGI: > 100 µM
HS 578T breast
  TGI: > 100 µM
SNB-75 CNS
  TGI: > 100 µM
UO-31 renal
  TGI: > 100 µM
SF-539 CNS
  TGI: > 100 µM
OVCAR-5 ovarian
  TGI: > 100 µM
NCI-H460 lung
  TGI: > 100 µM
RPMI-8226 leukemia
  TGI: > 100 µM
MOLT-4 leukemia
  TGI: > 100 µM
MCF7 breast
  TGI: > 100 µM
SF-295 CNS
  TGI: > 100 µM
LOX IMVI melanoma
  TGI: > 100 µM
T-47D breast
  TGI: > 100 µM
TK-10 renal
  TGI: > 100 µM
ACHN renal
  TGI: > 100 µM
M14 melanoma
  TGI: > 100 µM
U251 CNS
  TGI: > 100 µM
SF-268 CNS
  TGI: > 100 µM

## COc1cc(C2C3=C(N=C4SC(C(C)=O)=C(C)N42)c2ccccc2CC3)cc(OC)c1OC (stereo not drawn)
SN12C renal
  TGI: > 100 µM
OVCAR-4 ovarian
  TGI: > 100 µM
NCI-H23 lung
  TGI: > 100 µM
BT-549 breast
  TGI: > 100 µM
SK-OV-3 ovarian
  TGI: > 100 µM
CCRF-CEM leukemia
  TGI: > 100 µM
UACC-257 melanoma
  TGI: > 100 µM
NCI/ADR-RES ovarian
  TGI: > 100 µM
MDA-MB-435
  TGI: > 100 µM
UACC-62 melanoma
  TGI: > 100 µM
SNB-19 CNS
  TGI: > 100 µM
OVCAR-8 ovarian
  TGI: > 100 µM
KM12 colon
  TGI: > 100 µM
PC-3 prostate
  TGI: > 100 µM
HOP-62 NSCLC
  TGI: > 100 µM
HCT-116 colon
  TGI: > 100 µM
RXF 393 renal
  TGI: > 100 µM
MDA-N
  TGI: > 100 µM
786-0 renal
  TGI: > 100 µM
HCC-2998 colon
  TGI: > 100 µM
OVCAR-3 ovarian
  TGI: > 100 µM
SK-MEL-28 melanoma
  TGI: > 100 µM
HL-60(TB) leukemia
  TGI: 81.4 µM
SK-MEL-2 melanoma
  TGI: > 100 µM
K-562 leukemia
  TGI: 85.2 µM
A549 NSCLC
  TGI: > 100 µM
DU-145 prostate
  TGI: > 100 µM
SK-MEL-5 melanoma
  TGI: > 100 µM
HOP-92 NSCLC
  TGI: > 100 µM
SW-620 colon
  TGI: > 100 µM
MDA-MB-231 breast
  TGI: > 100 µM
COLO 205 colon
  TGI: > 100 µM
HS 578T breast
  TGI: > 100 µM
IGROV1 ovarian
  TGI: > 100 µM
SNB-75 CNS
  TGI: > 100 µM
UO-31 renal
  TGI: > 100 µM
A498 renal
  TGI: > 100 µM
SF-539 CNS
  TGI: > 100 µM
OVCAR-5 ovarian
  TGI: > 100 µM
RPMI-8226 leukemia
  TGI: 93.4 µM
HT29 colon
  TGI: > 100 µM
MCF7 breast
  TGI: > 100 µM
SF-295 CNS
  TGI: > 100 µM
LOX IMVI melanoma
  TGI: > 100 µM
NCI-H226 lung
  TGI: > 100 µM
T-47D breast
  TGI: 50.9 µM
EKVX NSCLC
  TGI: > 100 µM
ACHN renal
  TGI: > 100 µM
M14 melanoma
  TGI: > 100 µM
U251 CNS
  TGI: > 100 µM
SF-268 CNS
  TGI: > 100 µM
